The source of these data is patent EP0006718A1, “1.2.4-Triazolidine-3.5-dione derivatives, process for their preparation and pharmaceutical compositions containing them” (BEECHAM GROUP PLC, priority 1978, dated 1980).

The inhibition is the drop in the measured response relative to a control, in per cent. Lower therefore signals little suppression.

Structures are written as SMILES.

For assay [1], the system named is 5-hydroxy-tryptamine or histamine induced bronchoconstriction. Description: Broncho-dilation activity: inhibition of induced bronchoconstriction (Konzett-Rossler preparation). The assay is classed as in vivo. The conditions noted are these: Cavia porcellus, iv; anaesthetised artificially respired guinea-pig; read-out: ED 50 value for inhibition of bronchoconstriction. The source says: The compound of Example 4 was examined for its ability to inhibit 5-hydroxy-tryptamine or histamine induced bron- choconstrictioh in the anaesthetised artifically respired guinea-pig (Konzett-Rossler preparation).

Assay [2] deals with indomethacin induced gastric damage. Description: Anti-ulcer activity: inhibition of indomethacin induced gastric damage (method of Eleghe). Type of assay: in vivo. As to conditions: Rattus norvegicus, 30 minutes before 15mg/kg indomethacin s.c., rats sacrificed 4 hours later. On the procedure:
Anti-ulcer activity of the compound of Example 4 was assessed by the inhibition of indomethacin induced gastric damage in the rat according to the method of Eleghe (1974) Israeli J. Med. Sci. 10. 1451. Rats were starved overnight given 15mg/kg indomethacin subcutaneously and sacrificed 4 hours later. Stomachs were reflated with n. saline, cut along the greater curvature pinned out and scored for gastric damage.
Groups of 7 rats were used for each treatment and the test compound or vehicle was administered 30 minutes prior to giving the indomethacin. Varying doses of test compound were administered orally and control groups receiving vehicle only were set up simultaneously. Mean values for each treatment were obtained and the Mann Witney test applied for significance of difference between the values obtained with the treatments.

For `Cn1c(=O)n(CCCCCCC(=O)O)n(CCC(C)(O)COc2ccccc2)c1=O` (stereo not shown) [Example 4, 1-(6'-carboxyhexyl)-2-(3"-hydroxy-3"-methyl-4"-phenoxybutyl)-4-methyl'-1,2,4-triazolidine-3,5-dione], in assay [1], the ED50 was found to be 0.039 mg/kg. This compound gave an inhibition at 25 mg/kg in assay [2] (25 mg/kg p.o.) of 56%. This compound also gave an inhibition at 50 mg/kg in assay [2] (50 mg/kg p.o.) of 50%. The compound further came in with an inhibition at 100 mg/kg in assay [2] (100 mg/kg p.o.) of 92%.
